The source of these data is ChEMBL document CHEMBL4130449, “Bioactive Seco-Lanostane-Type Triterpenoids from the Roots of Leplaea mayombensis” (J Nat Prod, 2017).

The term IC50 denotes the point on the concentration scale where inhibition reaches its midpoint. Low values mean inhibition by little substance, high ones a need for much substance.

For this assay, the system named is MDA-MB-231. Description: Cytotoxicity against human MDA-MB-231 cells after 3 days by Celltiter-Glo assay. Type of assay: functional, cell-based. The settings on record: MDA-MB-231, 72 h.

Turning to `C=C(C)[C@H]1CC=C2[C@@H](CC[C@]3(C)[C@@H]([C@@H](CCC=C(C)C)C(=O)O)CC[C@@]23C)[C@]1(C)CCC(=O)O`, the IC50 amounted to 127 µM.

The compound `C=C(C)[C@H]1CC=C2[C@@H](CC[C@]3(C)[C@@H]([C@@H](CCC=C(C)C)C(=O)OC)CC[C@@]23C)[C@]1(C)CCC(=O)OC` registered an IC50 of 63.5 µM.

`CC[C@H](/C=C/[C@@H](C)[C@H]1CC[C@H]2[C@@H]3CC=C4C[C@@H](O)CC[C@]4(C)[C@H]3CC[C@]12C)C(C)C` [STIGMASTEROL] had an IC50 of 564 µM.

In turn, `C=C(C)[C@H]1CC=C2[C@@H](CC[C@]3(C)[C@@H]([C@@H](CCC=C(C)C)C(=O)O)CC[C@@]23C)[C@]1(C)CCC(=O)OC` returned an IC50 of 55 µM.

`C=C(C)[C@H]1CC=C2[C@@H](CC[C@]3(C)[C@@H]([C@@H](CCC=C(C)C)C(=O)O)CC[C@@]23C)[C@]1(C)CCC(=O)NCc1ccc(Br)cc1` registered a concentration for half-maximal inhibition (IC50) of 140 µM.
